Test results: PMC11374673, “Discovery of isoquinoline sulfonamides as allosteric gyrase inhibitors with activity against fluoroquinolone-resistant bacteria” (Nature Chemistry, 2024)
Values joined by “and” are separate entries in the source; they are usually repeats but may differ in a detail not shown here. Identical values can stand only once. “Also recorded” adds a separate entry of the source.

System: E. coli W3110
Experiment: Checkerboard assay with PMBN
Details: for Checkerboard well reading (growth), Average values: average of 3 wells; for Checkerboard well reading (growth): single wells (triplicate)
[1] = LEI-801 0.78125 µM + PMBN 0.5 µM
[2] = LEI-801 0.78125 µM + PMBN 16 µM
[3] = LEI-801 0.78125 µM + PMBN 32 µM
[4] = LEI-801 1.5625 µM + PMBN 0.5 µM

SMILES: O=S(=O)(NC[C@H]1CC[C@@H](c2ccc(-c3ccc(F)nc3)cc2)N1)c1cccc2cnccc12 [LEI-801]
- MIC (Escherichia coli, W3110): 200 µM
- Checkerboard well reading (growth), Average values (LEI-801 0.78125 µM + PMBN 0 µM): 0.7994
- Checkerboard well reading (growth) (LEI-801 0.78125 µM + PMBN 0 µM): 0.8278 and 0.8 and 0.7705
- Checkerboard well reading (growth), Average values [1]: 0.7351
- Checkerboard well reading (growth) [1]: 0.7319 and 0.7576 and 0.7157
- Checkerboard well reading (growth), Average values (LEI-801 0.78125 µM + PMBN 1 µM): 0.8267
- Checkerboard well reading (growth) (LEI-801 0.78125 µM + PMBN 1 µM): 0.8444 and 0.8247 and 0.811
- Checkerboard well reading (growth), Average values (LEI-801 0.78125 µM + PMBN 2 µM): 0.8646
- Checkerboard well reading (growth) (LEI-801 0.78125 µM + PMBN 2 µM): 0.8699 and 0.8873 and 0.8367
- Checkerboard well reading (growth), Average values (LEI-801 0.78125 µM + PMBN 4 µM): 0.6877
- Checkerboard well reading (growth) (LEI-801 0.78125 µM + PMBN 4 µM): 0.7078 and 0.6767 and 0.6785
- Checkerboard well reading (growth), Average values (LEI-801 0.78125 µM + PMBN 8 µM): 0.5094
- Checkerboard well reading (growth) (LEI-801 0.78125 µM + PMBN 8 µM): 0.4316 and 0.5477 and 0.5488
- Checkerboard well reading (growth), Average values [2]: 0.3746
- Checkerboard well reading (growth) [2]: 0.3718 and 0.3921 and 0.3599
- Checkerboard well reading (growth), Average values [3]: 0.3716
- Checkerboard well reading (growth) [3]: 0.3691 and 0.3426 and 0.4032
- Checkerboard well reading (growth), Average values (LEI-801 1.5625 µM + PMBN 0 µM): 0.7861
- Checkerboard well reading (growth) (LEI-801 1.5625 µM + PMBN 0 µM): 0.8385 and 0.7794 and 0.7404
- Checkerboard well reading (growth), Average values [4]: 0.7438
- Checkerboard well reading (growth) [4]: 0.7318 and 0.7541 and 0.7454
- Checkerboard well reading (growth), Average values (LEI-801 1.5625 µM + PMBN 1 µM): 0.7641
- Checkerboard well reading (growth) (LEI-801 1.5625 µM + PMBN 1 µM): 0.7579 and 0.7961 and 0.7382
- Checkerboard well reading (growth), Average values (LEI-801 1.5625 µM + PMBN 2 µM): 0.7789
- Checkerboard well reading (growth) (LEI-801 1.5625 µM + PMBN 2 µM): 0.7943 and 0.7704 and 0.772
- Checkerboard well reading (growth), Average values (LEI-801 1.5625 µM + PMBN 4 µM): 0.5724
- Checkerboard well reading (growth) (LEI-801 1.5625 µM + PMBN 4 µM): 0.635 and 0.5325 and 0.5498
- Checkerboard well reading (growth), Average values (LEI-801 1.5625 µM + PMBN 8 µM): 0.3746
- Checkerboard well reading (growth) (LEI-801 1.5625 µM + PMBN 8 µM): 0.3243 and 0.3533 and 0.4462
- Checkerboard well reading (growth), Average values (LEI-801 1.5625 µM + PMBN 16 µM): 0.3394
- Checkerboard well reading (growth) (LEI-801 1.5625 µM + PMBN 16 µM): 0.3897 and 0.339 and 0.2896
- Checkerboard well reading (growth), Average values (LEI-801 1.5625 µM + PMBN 32 µM): 0.3074
- Checkerboard well reading (growth) (LEI-801 1.5625 µM + PMBN 32 µM): 0.2616 and 0.2961 and 0.3644
- Checkerboard well reading (growth), Average values (LEI-801 3.125 µM + PMBN 0 µM): 0.7892
- Checkerboard well reading (growth), Average values (LEI-801 3.125 µM + PMBN 0.5 µM): 0.6976
- Checkerboard well reading (growth), Average values (LEI-801 3.125 µM + PMBN 1 µM): 0.7008
- Checkerboard well reading (growth), Average values (LEI-801 3.125 µM + PMBN 2 µM): 0.5725
- Checkerboard well reading (growth), Average values (LEI-801 3.125 µM + PMBN 4 µM): 0.4871
- Checkerboard well reading (growth), Average values (LEI-801 3.125 µM + PMBN 8 µM): 0.2805
- Checkerboard well reading (growth), Average values (LEI-801 3.125 µM + PMBN 16 µM): 0.2397
- Checkerboard well reading (growth), Average values (LEI-801 3.125 µM + PMBN 32 µM): 0.2242
- Checkerboard well reading (growth), Average values (LEI-801 6.25 µM + PMBN 0 µM): 0.7739
- Checkerboard well reading (growth), Average values (LEI-801 6.25 µM + PMBN 0.5 µM): 0.6373
- Checkerboard well reading (growth), Average values (LEI-801 6.25 µM + PMBN 1 µM): 0.4799
- Checkerboard well reading (growth), Average values (LEI-801 6.25 µM + PMBN 2 µM): 0.2823
- Checkerboard well reading (growth), Average values (LEI-801 6.25 µM + PMBN 4 µM): 0.1833
- Checkerboard well reading (growth), Average values (LEI-801 6.25 µM + PMBN 8 µM): 0.1357
- Checkerboard well reading (growth), Average values (LEI-801 6.25 µM + PMBN 16 µM): 0.1386
- Checkerboard well reading (growth), Average values (LEI-801 6.25 µM + PMBN 32 µM): 0.1521
- Checkerboard well reading (growth), Average values (LEI-801 12.5 µM + PMBN 0 µM): 0.6968
- Checkerboard well reading (growth), Average values (LEI-801 12.5 µM + PMBN 0.5 µM): 0.5454
- Checkerboard well reading (growth), Average values (LEI-801 12.5 µM + PMBN 1 µM): 0.4004
- Checkerboard well reading (growth), Average values (LEI-801 12.5 µM + PMBN 2 µM): 0.1564
- Checkerboard well reading (growth) (LEI-801 12.5 µM + PMBN 2 µM): 0.1441 and 0.1568 and 0.1684
- Checkerboard well reading (growth), Average values (LEI-801 12.5 µM + PMBN 4 µM): 0.1485
- Checkerboard well reading (growth) (LEI-801 12.5 µM + PMBN 4 µM): 0.1572
- Checkerboard well reading (growth), Average values (LEI-801 12.5 µM + PMBN 8 µM): 0.1397
- Checkerboard well reading (growth), Average values (LEI-801 12.5 µM + PMBN 16 µM): 0.1401
- Checkerboard well reading (growth), Average values (LEI-801 12.5 µM + PMBN 32 µM): 0.1472
- Checkerboard well reading (growth), Average values (LEI-801 25 µM + PMBN 0 µM): 0.6592
- Checkerboard well reading (growth) (LEI-801 25 µM + PMBN 0 µM): 0.7013 and 0.6648 and 0.6113
- Checkerboard well reading (growth), Average values (LEI-801 25 µM + PMBN 0.5 µM): 0.5495
- Checkerboard well reading (growth) (LEI-801 25 µM + PMBN 0.5 µM): 0.5605 and 0.5428 and 0.5453
- Checkerboard well reading (growth), Average values (LEI-801 25 µM + PMBN 1 µM): 0.1537
- Checkerboard well reading (growth) (LEI-801 25 µM + PMBN 1 µM): 0.153 and 0.1529 and 0.1554
- Checkerboard well reading (growth), Average values (LEI-801 25 µM + PMBN 2 µM): 0.155
- Checkerboard well reading (growth) (LEI-801 25 µM + PMBN 2 µM): 0.1518 and 0.1536 and 0.1596
- Checkerboard well reading (growth), Average values (LEI-801 25 µM + PMBN 4 µM): 0.1451
- Checkerboard well reading (growth) (LEI-801 25 µM + PMBN 4 µM): 0.1525 and 0.1428 and 0.1399
- Checkerboard well reading (growth), Average values (LEI-801 25 µM + PMBN 8 µM): 0.1413
- Checkerboard well reading (growth) (LEI-801 25 µM + PMBN 8 µM): 0.1394 and 0.1427 and 0.1418
- Checkerboard well reading (growth), Average values (LEI-801 25 µM + PMBN 16 µM): 0.1492
- Checkerboard well reading (growth) (LEI-801 25 µM + PMBN 16 µM): 0.1486 and 0.1511 and 0.148
- Checkerboard well reading (growth), Average values (LEI-801 25 µM + PMBN 32 µM): 0.1528
- Checkerboard well reading (growth) (LEI-801 25 µM + PMBN 32 µM): 0.1518 and 0.1502 and 0.1563
- Checkerboard well reading (growth), Average values (LEI-801 50 µM + PMBN 0 µM): 0.5341
- Checkerboard well reading (growth) (LEI-801 50 µM + PMBN 0 µM): 0.4876 and 0.5464 and 0.5682
- Checkerboard well reading (growth), Average values (LEI-801 50 µM + PMBN 0.5 µM): 0.1519
- Checkerboard well reading (growth) (LEI-801 50 µM + PMBN 0.5 µM): 0.1573 and 0.1437 and 0.1549
- Checkerboard well reading (growth), Average values (LEI-801 50 µM + PMBN 1 µM): 0.152
- Checkerboard well reading (growth) (LEI-801 50 µM + PMBN 1 µM): 0.1515 and 0.1507 and 0.1538
- Checkerboard well reading (growth), Average values (LEI-801 50 µM + PMBN 2 µM): 0.1516
- Checkerboard well reading (growth) (LEI-801 50 µM + PMBN 2 µM): 0.15 and 0.1487 and 0.1561
- Checkerboard well reading (growth), Average values (LEI-801 50 µM + PMBN 4 µM): 0.1474
- Checkerboard well reading (growth) (LEI-801 50 µM + PMBN 4 µM): 0.1453 and 0.1491 and 0.1477
- Checkerboard well reading (growth), Average values (LEI-801 50 µM + PMBN 8 µM): 0.1653
- Checkerboard well reading (growth) (LEI-801 50 µM + PMBN 8 µM): 0.1998 and 0.1452 and 0.1509
- Checkerboard well reading (growth), Average values (LEI-801 50 µM + PMBN 16 µM): 0.1513
- Checkerboard well reading (growth) (LEI-801 50 µM + PMBN 16 µM): 0.1499 and 0.152 and 0.1519
- Checkerboard well reading (growth), Average values (LEI-801 50 µM + PMBN 32 µM): 0.1507
- Checkerboard well reading (growth) (LEI-801 50 µM + PMBN 32 µM): 0.1485 and 0.1492 and 0.1546
- MIC E. coli + 8 μM PMBN (LPS disruption (pharmacological)): 6.25 µM
- synergy with PMBN (checkerboard): potentiates; also recorded: Clear synergy
- MSC (checkerboard with PMBN, E. coli W3110): 6.25 µM
